{"source": "patent US20110269826A1", "about": "“Method” (priority 2008, published 2011)", "tested_on": "MPTP primates", "assay": "Dyskinesia and locomotor studies in drug-naive MPTP primates incl. L-Dopa and apomorphine challenge", "procedure": "Evaluation of dyskinesias was performed in the efficacy studies describe above using a novel method for dyskinesia quantification based on video dyskinesia analysis (VDA) that assesses the whole range of dyskinetic movement continuously during the observed video sequence, using a standardized protocol.\nTo mimic clinical conditions, these drug-naive animals were further challenged with acute systemic administration of L-Dopa then with a pro-dyskinetic short-acting D1/D2 dopaminergic agonist (apomorphine).\nExperimental Design. Neurotoxin MPTP was first administrated to 23 macaques until they developed severe Parkinsonism, these were then divided into experimental groups according to the following experiments: • 1. […] Animals were then challenged with L-Dopa and the number of dyskinesias was assessed with a specific software (The Observer®, Noldus)\nBehaviour. All animals were assessed daily for their general clinical condition with special attention paid to the nutritional status. At the same time, the general neurological state of each macaque was assessed both pre- and post-lentiviral injections. To objectively quantify our neurological observations, animals were video-taped for 30 minutes before MPTP lesioning and at regular intervals following viral injections. The videos were then analyzed off-line by an examiner blinded to the experimental conditions. […]"}
{"smiles": "CN1CCc2cccc3c2[C@H]1Cc1ccc(O)c(O)c1-3", "note": "[apomorphine]", "values": [{"measurement": "dyskinesia induced by the drug in drug naive MPTP animals", "setting": "acute systemic administration, no therapeutic vector", "value": "induced hyperkinetic behaviour with numerous dyskinetic movements"}, {"measurement": "locomotor activity of MPTP-long term and MPTP-LacZ primates after the drug", "setting": "oral L-Dopa / apomorphine injection, to levels similar to normal primates, p<0.05", "value": "improved the locomotor activity"}]}
